Measured values taken from patent US20100113613A1, “CYCLOHEXANE POLYALCOHOL FORMULATION FOR TREATMENT OF DISORDERS OF PROTEIN AGGREGATION” (WARATAH PHARMACEUTICALS, priority 2006, published 2010).

Assays:
TgCRND8 mice [1] = assay: TgCRND8 mice therapeutic dosing (5-6 months): Morris Water Maze; format: in vivo
Aβ42 [2] = target: T1, Aβ42 (Homo sapiens, UniProt P05067); assay: TgCRND8 mice 2 month ad libitum treatment from 5 months: brain and plasma Aβ42 ELISA; format: in vivo; conditions: 2 month treatment ad libitum 10 mg/ml from 5 months of age
T1 construct: Levels of Aβ42 in brain homogenates were assessed by ELISA; from tissue; host or cells: brain homogenate (and plasma) of TgCRND8 transgenic mice

clinical = conditions: human, in vivo
From the text: Dose levels were escalated between cohorts, such that the first cohort received the lowest dose level, the middle cohorts received intermediate dose levels, and the final cohort received the highest proposed dose level. Dose escalation was dependent on a review of safety data from the previously dosed cohort. […] Dosing started with the lowest dose and escalated to the highest dose. […] Subjects received their single dose of study drug on the study day 1 (Day 1). Throughout the day on Day 1, subjects were monitored for safety and PK samples were drawn. On Day 2, subjects were monitored for safety and PK samples were drawn.

[3] = Competition of scyllo-inositol uptake by myo-inositol after single oral gavage (FIG. 17); format: in vivo; conditions: co-administration of 0, 50, 200 or 400 μg of myo-inositol
Protocol: FIG. 17. A competition assay with myo-inositol to compete scyllo-inositol uptake, following a single oral gavage dose was examined. (A) Plasma 3^H-scyllo-inositol levels following co-administration of 0, 50, 200 or 400 μg of myo-inositol. Myo-inositol loading appears to alter the kinetics of oral scyllo-inositol uptake in a dose-dependent manner.

TgCRND8 mice [4] = assay: TgCRND8 effective dose range (0.3-3.3 mg/kg/day, 3 to 4 months): Morris Water Maze; format: in vivo; conditions: for effect on cognitive dysfunction and plaque burden: oral gavage twice daily
Protocol: The highest possible dose level of scyllo-cyclohexanehexyl compound was administered in a CRND8 mouse model. […]8 mice were dosed for 28 days from 3 to 4 months of age, i.e. a time when the disease phenotype would be newly established. This study design was selected to enhance the efficiency of the study (dose earlier) and maximise the information obtained (dose at a time when changes are of sufficient magnitude to detect a treatment effect). […] Cognitive function and plaque burden were assessed. • Improvement of cognitive function: Animals were assessed using the Morris Water Maze at 4 months (FIG. 11). […] This path length was similar to that observed in previous experiments in mice dosed with the compound in drinking water ad libitum. […] Thus a clear dose response was observed.

Aβ42 [5] = target: T1, Aβ42; assay: TgCRND8 dose response, dosed 5-6 months once daily: Aβ42 in brain homogenates by ELISA; format: in vivo; conditions: CRND8 mice 5-6 months, oral
Protocol: Dose response was further examined in animals dosed from 5-6 months of age. Disease is more advanced at this later time point, so there may be greater clinical relevance. The dose levels investigated were 5, 10 and 30 mg/kg or vehicle, once daily. Accumulation of Aβ42 was assessed. • Reduction in amyloid accumulation in the brain: Levels of Aβ42 in brain homogenates were assessed by ELISA.

long term potentiation = assay: Long term potentiation experiments with amyloid oligomer; conditions: amyloid oligomer concentration 1-2 nM
Protocol: More complex systems provide support for 5 μM (0.9 μg/mL) as an effective local concentration of the scyllo-cyclohexanehexyl. […] The effectiveness of this concentration was confirmed in acute cognitive dysfunction study in rats.

T1 sequence (P05067 672-713): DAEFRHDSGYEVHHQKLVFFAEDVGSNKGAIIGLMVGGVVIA

OC1C(O)C(O)C(O)C(O)C1O (stereo not shown) [AZD-103, scyllo-inositol]
swim path lengths vs non-transgenic littermates (TgCRND8 mice [1]; TgCRND8 mice treated 28 days from 5 months, p=0.11): indistinguishable from non-transgenic littermates | behavioural performance (swim path length in the Morris Water Maze) vs untreated controls (TgCRND8 mice [1]; TgCRND8 mice, 28 days from 5 months, drinking water 10 mg/ml (approx. 900 mg/kg over 24 hours), p=0.01): significantly better behavioural performance | Plasma Aβ levels Aβ42 (Aβ42 [2]): 3035 ± 236 pg/mL | mean elimination half-life (t1/2), range over doses (clinical; po): 13 24 | CL/F (clinical; po, 500 mg): 13.67 ± 5.49 L/h | CL/F (clinical; po, 1000 mg): 8.51 ± 2.78 L/h | CL/F (clinical; po, 2000 mg): 9.59 ± 1.80 L/h | CL/F (clinical; po, 3500 mg): 7.71 ± 1.59 L/h | CL/F (clinical; po, 5000 mg): 10.04 ± 1.49 L/h | Vd (clinical; male, 7000 mg): 214 L | half-life (clinical; male, 7000 mg): 18.4 h | share of the AUC accounted for in the first 12 hrs (clinical; male, po): 80-85% | AUC(0-inf) (clinical; male, po, 500 mg): 42.5 ± 22.1 µg·h/mL | AUC(0-t) (clinical; male, po, 500 mg): 29.9 ± 7.11 µg·h/mL | Cmax (clinical; male, po, 500 mg): 5.83 ± 1.83 µg/mL | MRT (clinical; male, po, 500 mg): 19.1 ± 21.8 h | Tmax (clinical; male, po, 500 mg): 4 ± 1.55 h | half-life (clinical; male, po, 500 mg): 13.3 ± 16.7 h | AUC(0-inf) (clinical; male, po, 1000 mg): 130 ± 44.4 µg·h/mL | Cmax (clinical; male, po, 1000 mg): 17 ± 5.29 µg/mL | MRT (clinical; male, po, 1000 mg): 19.7 ± 3.17 h | Tmax (clinical; male, po, 1000 mg): 3.25 ± 1.47 h | half-life (clinical; male, po, 1000 mg): 22.5 ± 5.75 h | AUC(0-inf) (clinical; male, po, 2000 mg): 215 ± 41.9 µg·h/mL | AUC(0-t) (clinical; male, po, 2000 mg): 194 ± 36.1 µg·h/mL | Cmax (clinical; male, po, 2000 mg): 33.1 ± 7.57 µg/mL | MRT (clinical; male, po, 2000 mg): 16.3 ± 3.99 h | Tmax (clinical; male, po, 2000 mg): 2.75 ± 0.61 h | half-life (clinical; male, po, 2000 mg): 23.9 ± 7.24 h | AUC(0-inf) (clinical; male, po, 3500 mg): 467 ± 77.7 µg·h/mL | AUC(0-t) (clinical; male, po, 3500 mg): 441 ± 71.4 µg·h/mL | Cmax (clinical; male, po, 3500 mg): 74.6 ± 9.24 µg/mL | MRT (clinical; male, po, 3500 mg): 11 ± 1.43 h | Tmax (clinical; male, po, 3500 mg): 2.75 ± 0.61 h | half-life (clinical; male, po, 3500 mg): 20.3 ± 3.09 h | AUC(0-inf) (clinical; male, po, 5000 mg): 507 ± 72 µg·h/mL | AUC(0-t) (clinical; male, po, 5000 mg): 491 ± 73.2 µg·h/mL | Cmax (clinical; male, po, 5000 mg): 110 ± 26.9 µg/mL | MRT (clinical; male, po, 5000 mg): 8.23 ± 2 h | Tmax (clinical; male, po, 5000 mg): 2.42 ± 0.66 h | half-life (clinical; male, po, 5000 mg): 16.9 ± 7.1 h | AUC(0-inf) (clinical; male, po, 7000 mg): 885 ± 151 µg·h/mL | AUC(0-t) (clinical; male, po, 7000 mg): 860 ± 148 µg·h/mL | Cmax (clinical; male, po, 7000 mg): 155 ± 20.4 µg/mL | Tmax (clinical; male, po, 7000 mg): 2.42 ± 0.67 h | half-life (clinical; male, po, 7000 mg): 18.4 ± 4.64 h | brain levels of scyllo-inositol at 4 h following myo-inositol administration [3]: not significantly changed

scyllo-inositol [AZD-103]
swim path length vs untreated controls (TgCRND8 mice [4]; TgCRND8 mice, 0.3 mg/kg/day, 28 days from 3 to 4 months): indistinguishable from untreated controls | effect on cognitive dysfunction and plaque burden (TgCRND8 mice [4]; TgCRND8 mice, 0.3 mg/kg/day, compared to untreated animals): no observed effect | effect on cognitive dysfunction and plaque burden (TgCRND8 mice [4]; TgCRND8 mice, 1.0 mg/kg/day): partial effectiveness | swim path length on day 5 of training vs untreated animals (TgCRND8 mice [4]; TgCRND8 mice, 3.3 mg/kg/day, 28 days from 3 to 4 months, p=0.04): significantly shorter swim path length | effect on cognitive dysfunction and plaque burden (TgCRND8 mice [4]; TgCRND8 mice, 3.3 mg/kg/day): significant alleviation of cognitive dysfunction and reduction in plaque burden | dose providing efficacy in terms of behaviour and Aβ accumulation (TgCRND8 mice [4]; young CRND8 mice dosed 12-16 weeks of age, oral): 3.3 mg/kg/day | dose showing maximum effectiveness at reducing plaques (Aβ42 [5]): 30 mg/kg/day | lowest maximally-effective dose level (long term potentiation): 5 µM
